Data taken from patent US4477670A, “4-Aryloxy-1,2,3,4-tetrahydroisoquinolines” (Hoechst-Roussel Pharmaceuticals Inc., priority 1982, dated 1984).
Structures can show the parent of a compound that is named as a salt. Where two headings read alike, the source gives them in different places.

Columns and labels:
[1] = test system: phenyl-para-quinone induced writhing; assay: phenyl-para-quinone writhing assay in mice (analgesia); format: in vivo; details: subcutaneous
Source text: The compounds of the invention are primarily useful as analgesic and anticonvulsant agents. […] Exptl. Biol. Med., 95, 729 (1953)]. Listed below in Table III is the analgesic effect of some of the compounds of the invention, expressed as percent inhibition of phenyl-para-quinone induced writhing.

[2] = test system: supra maximal electroshock (extensor tonus); assay: supra maximal electroshock assay (anticonvulsant); format: in vivo, male mice (Charles River, CD-1); details: Mus musculus, ip, read-out: % Inhibition (anticonvulsant effect)
Method: The compounds of the present invention are also useful as anticonvulsant agents for mammals as evidenced by the supra maximal electroshock assay of Woodbury, L. A. and Davenport, U. D. in Arch. Int. Pharmacodynam, Vol. 92 (1952) at pages 97-107.
In this method, groups of male mice are used (Charles River, CD-1), 18-30 grams. Drugs are prepared using distilled water and if insoluble, a surfactant is added. Control animals receive vehicle. Drugs are routinely administered intraperitoneally. The route of administration may be varied (orally, subcutaneously). The dosage volume is 10 ml/kg.
The animal's eyes are placed across the output terminals of an A.C. shocker that delivers 205 volts rms for 300 milliseconds. Electrode paste coats the animal's eyes at the point of contact with the terminals.
Protection is expressed as normalized percent inhibition relative to vehicle control.
A time response is carried out using 6 animals per group. Animals are tested at 30, 60 and 120 minutes post-drug. Additional time periods are tested if indicated by previous tests.
Listed below in Table II is the anticonvulsant effect of some of the compounds of the invention expressed as percent inhibition.

[3] = diuretic activity in rats, drug to urea ratio; format: in vivo, female Wistar rats; details: oral, urine 0-5 hours, vs urea 1000 mg/kg
Method: Selected compounds of the present invention are useful as diuretics. The diuretic activity of the compounds is measured in the following manner. Groups of female Wistar rats (150-200 grams) are used and they are food deprived 16 hours prior to testing. Drugs are prepared in 1% saline and administered in a dosage volume of 15 ml/kg orally. After dosing each animal is placed in an individual metabolic cage. Water is permitted ad libitum. Urine is collected from 0-5 hours after dosing. […] The individual urine samples are analyzed for sodium and/or potassium and chloride. Sodium and potassium values are typically determined using a flame photometer. Chloride determinations are typically made by a chloride analyzer. Sodium, potassium and chloride values are expressed as the mean milliequivalents (mEq)/kg/5 hrs. Diuresis is expressed as the mean milliliters (ml)/kg/5 hrs. The mean values obtained for sodium, potassium, chloride and diuresis are expressed in a ratio to the sodium, potassium, chloride and diuresis values obtained for the urea treated group. This ratio is called the "drug to urea ratio." A drug to urea ratio greater than or equal to one for diuresis and/or sodium is indicative of diuretic activity. The diuretic effect of some of the compounds of the invention, expressed as the ratio of (a) the mean values obtained for diuresis (urine volume) of the compound treated group to the urea treated group and (b) the mean values obtained for sodium of the compound treated group to the urea treated group, are given in Table I.

[4] = test system: ptosis of tetrabenazine-induced depression; assay: inhibition of tetrabenazine-induced depression (ptosis) in mice; format: in vivo; details: intraperitoneal
[5] = test system: 5-HTP activity (continuous forelimb clonus); assay: L-5-hydroxytryptophan (5 HTP) potentiation in rats; format: in vivo, male Wistar rats; details: Rattus norvegicus, ip
Method: Groups of six male Wistar rats (150-200 grams) are used in this test procedure. Four hours prior to testing pargyline HCl is prepared and administered by subcutaneous injection at 75 mg/kg in 1% saline and at a dosage volume of 1.25 ml/kg. Thirty minutes before testing, drugs are prepared using distilled water and, if insoluble, a suitable surfactant is added. Control groups receive vehicle. Drugs are routinely administered intraperitoneally (i.p.) at a dosage volume of 10 ml.kg. L-5-Hydroxytryptophan is prepared at 1.0 mg/kg in distilled water and is administered i.p. in volumes proportional to 10 ml/kg. Drugs are administered in a randomized manner and 5-minute post 5-HTP treatment the animals are observed for 15 minutes. […] Potentiation is expressed as normalized percent potentiation relative to vehicle control. When a compound is observed to potentiate 5-HTP activity, a dose range using ten animals per group is run in the same manner. An effective dose (ED) is determined by probit analysis.

[6] = intraperitoneal, probit analysis, read-out: ED50 (5-HTP potentiation)

1,2,3,4-tetrahydro-4-(p-trifluoromethylphenyl)isoquinoline hydrochloride
% Inhibition of phenyl-para-quinone induced writhing ([1]; 25.0 mg/kg): 51%

FC(F)(F)c1cccc(OC2CNCc3ccccc32)c1 (stereo not drawn) [1,2,3,4-Tetrahydro-4-(m-trifluoromethylphenoxy)isoquinoline maleate]
inhibition in vivo at 21 mg/kg ([2]; intraperitoneal, 21.0 mg/kg): 50%

FC(F)(F)c1ccc(OC2CNCc3ccccc32)cc1 (stereo not drawn) [1,2,3,4-Tetrahydro-4-(p-trifluoromethylphenoxy)isoquinoline hydrochloride]
inhibition in vivo at 35 mg/kg ([2]; intraperitoneal, 35.0 mg/kg): 50%

CN(C)CCN1Cc2ccccc2C(Oc2ccc(C(F)(F)F)cc2)C1 (stereo not drawn) [2-(2-N,N--dimethylaminoethyl)-1,2,3,4-tetrahydro-4-(p-trifluoromethylphenoxy)isoquinoline]
Diuresis Drug to Urea Ratio (Vol.) ([3]; 25 mg/kg): 1.1 | Sodium Drug to Urea Ratio ([3]; 25 mg/kg): 1.4

CCN(CC)CCN1Cc2ccccc2C(Oc2ccc(C(F)(F)F)cc2)C1 (stereo not drawn) [2-(2-N,N-Diethylaminoethyl)-4-(p-trifluoromethylphenoxy)-1,2,3,4-tetrahydroisoquinoline dioxalate]
Diuresis Drug to Urea Ratio (Vol.) ([3]; 25 mg/kg): 1.4 | Sodium Drug to Urea Ratio ([3]; 25 mg/kg): 1.0 | % Inhibition of phenyl-para-quinone induced writhing ([1]; 21.8 mg/kg): 50% | inhibition in vivo at 14.8 mg/kg ([2]; intraperitoneal, 14.8 mg/kg): 50%

CN(C)CCN1Cc2ccccc2C(Oc2ccc(C(F)(F)F)cc2)C1 (stereo not drawn) [2-(2-N,N-Dimethylaminoethyl)-4-(p-trifluoromethylphenoxy)-1,2,3,4-tetrahydroisoquinoline dihydrochloride]
% Inhibition of phenyl-para-quinone induced writhing ([1]; 14.4 mg/kg): 50% | inhibition in vivo at 10.3 mg/kg ([2]; intraperitoneal, 10.3 mg/kg): 50%

CN(C)CCCN1Cc2ccccc2C(Oc2cccc(C(F)(F)F)c2)C1.O=C(O)/C=C\C(=O)O.O=C(O)/C=C\C(=O)O (stereo not drawn) [2-(3-Dimethylaminopropyl)-1,2,3,4-tetrahydro-4-(m-trifluoromethylphenoxy)isoquinoline dimaleate]
% Inhibition of phenyl-para-quinone induced writhing ([1]; 25.0 mg/kg): 53% | inhibition in vivo at 50 mg/kg ([2]; intraperitoneal): 100%

CN(C)CCCN1Cc2ccccc2C(Oc2ccc(C(F)(F)F)cc2)C1 (stereo not drawn) [2-(3-Dimethylaminopropyl)-1,2,3,4-tetrahydro-4-(p-trifluoromethylphenoxy)isoquinoline dihydrochloride]
inhibition in vivo at 14.4 mg/kg ([2]; intraperitoneal, 14.4 mg/kg): 50%

CN(C)CCCN1Cc2ccccc2C(Oc2ccc([N+](=O)[O-])cc2)C1 (stereo not drawn) [2-(3-N,N-dimethylaminopropyl)-4-(p-nitrophenoxy)-1,2,3,4-tetrahydroisoquinoline dihydrochloride]
% Inhibition of phenyl-para-quinone induced writhing ([1]; 14.7 mg/kg): 50%

FC(F)(F)c1ccc(OC2CN(CCCN3CCCCC3)Cc3ccccc32)cc1.O=C(O)C(=O)O.O=C(O)C(=O)O (stereo not drawn) [2-(3-Piperidinopropyl)-1,2,3,4-tetrahydro-4-(p-trifluoromethylphenoxy)isoquinoline dioxalate]
Diuresis Drug to Urea Ratio (Vol.) ([3]; 10 mg/kg): 1.6 | Sodium Drug to Urea Ratio ([3]; 10 mg/kg): 2.2 | % Inhibition of phenyl-para-quinone induced writhing ([1]; 15.4 mg/kg): 50%

CN1Cc2ccccc2C(Oc2cccc(C(F)(F)F)c2)C1.O=C(O)/C=C\C(=O)O (stereo not drawn) [2-Methyl-1,2,3,4-tetrahydro-4-(m-trifluoromethylphenoxy)isoquinoline maleate]
inhibition of the ptosis of tetrabenazine-induced depression ([4]; 20 mg/kg): 50% | ED50 [5, 6]: 7.8 mg/kg | inhibition in vivo at 50 mg/kg ([2]; intraperitoneal): 67%

CN1Cc2ccccc2C(Oc2ccc([N+](=O)[O-])cc2)C1 (stereo not drawn) [2-Methyl-4-(p-nitrophenoxy)-1,2,3,4-tetrahydroisoquinoline]
inhibition of the ptosis of tetrabenazine-induced depression ([4]; 20 mg/kg): 30% | ED50 [5, 6]: 4.5 mg/kg

Clc1ccc(OC2CNCc3ccccc32)cc1 (stereo not drawn) [4-(p-Chlorophenoxy)-1,2,3,4-tetrahydroisoquinoline hydrochloride]
inhibition in vivo at 23.4 mg/kg ([2]; intraperitoneal, 23.4 mg/kg): 50%

CN(C)CCCN1Cc2ccccc2C(Oc2ccc(Cl)cc2)C1 (stereo not drawn) [4-(p-Chlorophenoxy)-2-(3-dimethylaminopropyl)-1,2,3,4-tetrahydroisoquinoline dimaleate]
inhibition in vivo at 50 mg/kg ([2]; intraperitoneal): 100%

CN1Cc2ccccc2C(Oc2ccc(C#N)cc2)C1 (stereo not drawn) [4-(p-Cyanophenoxy)-2-methyl-1,2,3,4-tetrahydroisoquinoline]
Diuresis Drug to Urea Ratio (Vol.) ([3]; 50 mg/kg): 1.1 | Sodium Drug to Urea Ratio ([3]; 50 mg/kg): 1.2

O=C(O)/C=C\C(=O)O.O=[N+]([O-])c1ccc(OC2CNCc3ccccc32)cc1 (stereo not drawn) [4-(p-Nitrophenoxy)-1,2,3,4-tetrahydroisoquinoline maleate]
% Inhibition of phenyl-para-quinone induced writhing ([1]; 25.0 mg/kg): 65%

CN1Cc2ccccc2C(Oc2ccc(C(F)(F)F)cc2)C1 (stereo not drawn) [4-(p-Trifluoromethylphenoxy)-2-methyl-1,2,3,4-tetrahydroisoquinoline oxalate]
inhibition in vivo at 50 mg/kg ([2]; intraperitoneal): 50%

CN(C)CCC=C1c2ccccc2CCc2ccccc21 [Amitriptyline, reference compound]
inhibition of the ptosis of tetrabenazine-induced depression ([4]; 2 mg/kg): 50% | ED50 ([5]; standard, unit inferred, read-out: ED50 (5-HTP potentiation), standard): 7.1 mg/kg

CNC1=Nc2ccc(Cl)cc2C(c2ccccc2)=[N+]([O-])C1 [Chlorodiazepoxide, reference compound]
inhibition in vivo at 8 mg/kg [2]: 50%

CN1C(=O)CN=C(c2ccccc2)c2cc(Cl)ccc21 [Diazepam, reference compound]
inhibition in vivo at 1.7 mg/kg [2]: 50%

C=C(CC)C(=O)c1ccc(OCC(=O)O)c(Cl)c1Cl [ethacrynic acid, reference compound]
Diuresis Drug to Urea Ratio (Vol.) ([3]; 64 mg/kg): 2.5

O=C(O)COc1ccc(C(=O)c2cccs2)c(Cl)c1Cl [tienilic acid, reference compound]
Diuresis Drug to Urea Ratio (Vol.) ([3]; 64 mg/kg): 1.8

Propoxyphene [reference compound]
% Inhibition of phenyl-para-quinone induced writhing ([1]; 3.9 mg/kg): 50%
